In patent US20070105789A1, “Combinatorial chemotherapy treatment using Na+/K+ ATPase inhibitors” (priority 2004, published 2007):
Converted amounts (≈) assume the structure as drawn. Where two headings read alike, the source gives them in different places.

How the values were obtained:
A549 Sentinel Line = assay: Sentinel Line reporter assay (beta-gal, FACS); assay type: cell-based, human; settings: A549 sentinel line, with Gemcitabine, 40 hrs
Method: The expression level of beta-galactosidase gene in sentinel lines was determined by using a fluorescent substrate fluorescein di-B-D-Galactopyranside (FDG, Marker Gene Tech, #M0250) introduced into cells by hypotonic shock. Cleavage by beta-galactosidase results in the production of free fluorescein, which is unable to cross the plasma membrane and is trapped inside the beta-gal positive cells. Briefly, the cells to be analyzed are trypsinized, and resuspended in PBS containing 2 mM FDG (diluted from a 10 mM stock prepared in 8:1:1 mixture of water: ethanol: DMSO). The cells were then shocked for 4 minutes at 37° C. and transferred to FACS tubes containing cold 1×PBS on ice. Samples were kept on ice for 30 minutes and analyzed by FACS in FLI channel.
Sentinel Line cells with beta-galactosidase reporter gene were plated at 1×10^5 cells/10 cm dish. […] After 40 hrs, the cells were trypsinized and the expression level of reporter gene was determined by FDG loading.
The reporter activity was measured by FACS analysis.

VEGF = VEGF secretion in tumor cells; assay type: cell-based; settings: FIG. 8
HIF-1α [1] = assay: HIF-1α induced under normoxia by PHD inhibitor L-mimosone, Hep3B Western blot; assay type: cell-based, human; settings: 200 μM L-mimosone, 18 h
Method: Abundance of HIF-1α and β-actin was determined by western blotting.

[2] = test system: Panc-1 human pancreatic xenograft; assay: Panc-1 human pancreatic tumor xenograft in nude mice; assay type: in vivo; settings: Panc-1; BNC-4 15 mg/ml s.c. pump; Gemcitabine 40 mg/kg q3d×4
Text: (§1) Female nude mice (nu/nu) between 5 and 6 weeks of age weighing approximately 20 g were implanted subcutaneously (s.c.) by trocar with fragments of human tumors harvested from s.c. grown tumors in nude mice hosts. […] Each group contains 8-10 mice, each of which was ear tagged and followed throughout the experiment.
(§2) The administration of drugs or controls began the day the animals were pair-matched (Day 1). […] Mice were weighed and tumor measurements were obtained using calipers twice weekly, starting Day 1. These tumor measurements were converted to mg tumor weight by standard formula, (W^2×L)/2. The experiment is terminated when the control group tumor size reached an average of about 1 gram. Upon termination, the mice were weighed, sacrificed and their tumors excised. The tumors were weighed and the mean tumor weight per group was calculated.
(§3) The control animals received pumps containing vehicle (50% DMSO in DMEM). The mice treated with standard chemotherapy agent received intra-peritoneal injections of Gemcitabine at 40 mg/kg every 3 days for 4 treatments (q3d×4). Each data point represent average tumor weight (n=8) and error bars indicate SEM.
as §3

[3] = test system: Caki-1 human renal cancer xenograft; assay type: in vivo, nude mice; settings: Caki-1
Text: as §1, §2

Na+/K+-ATPase [4] = molecular target: T1, Na+/K+-ATPase (Canis lupus familiaris, UniProt P50997); assay: Na+/K+-ATPase inhibition; assay type: biochemical, dog; settings: read-out: IC50 for inhibition of Na+/K+-ATPase
T1 construct: enzyme preparation from dog kidney (Sigma); purchased Sigma; host or cells: dog kidney tissue
Method: (§4) Anti-prolerafitive IC50 values were determined by MTS assay using an A549 cell line. Na^+/K^+-ATPase inhibition IC50 values were obtained using enzyme preparation from dog kidney (Sigma).

A549 cell line = assay: anti-proliferation MTS assay in A549 cell line; assay type: cell-based; settings: Homo sapiens
Method: as §4

HIF-1α [5] = assay: Western blot using anti-HIF-1α antibody (Example XVI); assay type: cell-based
[6] = test system: panel of 10 cancer cell lines; assay: cytotoxicity against a panel of 10 cancer cell lines; assay type: cell-based; settings: read-out: median IC50
[7] = effective plasma concentration and effective oral dose in patients; assay type: in vivo; settings: Homo sapiens, cancer indications, 1.5 to 3 times that of cardiac indications, read-out: median effective concentration (EC50) of free drug
[8] = steady state serum level of about 50 ng/mL, xenograft nude mouse model
Na+/K+-ATPase [9] = settings: Erdmann E 1978; cited from earlier work
[10] = cited from earlier work
[11] = at therapeutic plasma level; cited from earlier work
[12] = cited from earlier work; remark: listed apart in the source
rats = settings: cited from earlier work
cats = settings: cited from earlier work
[13] = 12 healthy individuals, 2×0.5 mg for 8 days, radio-immunoassay

With C[C@@H]1OC(OC2C=C3CCC4C(CC[C@]5(C)[C@@H](c6ccc(=O)oc6)CC[C@]45O)[C@@]3(C)CC2)[C@H](O)[C@H](O)[C@H]1O (stereo partly drawn) [BNC-4, proscillaridin] the “effect on Gemcitabine-induced reporter activity” value (A549 Sentinel Line) was “significantly shift the reporter activity to the left”, the “secretion of VEGF in tumor cells” value (VEGF) was “directly or indirectly inhibits” and the “HIF-1α accumulation induced by L-mimosone” value (HIF-1α [1]) was “eliminated HIF-1α accumulation by L-mimosone”. For the same compound, the TGI [2] was “about 87%”, the TGI ([3]; BNC-4 5 mg/ml s.c. pump) was 43% and the TGI ([3]; BNC-4 15 mg/ml s.c. pump) was 73%. The IC50 (Na+/K+-ATPase [4]) was ~130 nM, the IC50 (A549 cell line) was ~2.1 nM and the HIF-1α expression (HIF-1α [5]; 0.1 μM) was “completely inhibits”. The HIF-1α expression (HIF-1α [5]; 1 μM) was “completely inhibits”, the IC50 [6] was ~23 nM and the EC50 [7] was 1.2 to 2.5 ng/mL (≈ 2.26 to 4.71 nM). For the same compound, the “TGI (tumor growth inhibition)” value [8] was “greater than 60%”, the “order of Na+/K+-ATPase-inhibition” value (Na+/K+-ATPase [9]) was “Ouabain<Digoxin<Proscillaridin” and the Tmax [10, 13] was 48 ± 30 min. The “median AUC” value [10, 13] was 385.0 ± 43.6 ng·h/mL, the “median Cmax” value [10, 13] was 23.5 ± 2.6 ng/mL and the “plasma half-life in human” value ([10]; according to the literature) was “about 40 hours”. For the same compound, the “measurable unconjugated drug as share of the administered quantity” value ([10]; after oral administration) was 7%, the “median plasma half-life (T1/2)” value ([10]; cardiac patients) was “up to 49 hours” and the absolute bioavailability ([10]; dosage form with acid-resistant (enteric) coating) was “about 35%”. For the same compound, the “Volume-of-Distribution (VD)” value ([10]; in vivo) was 562 L, the daily clearance ([10]; in vivo) was ~35% and the “drug and its metabolites excreted by the bile” value ([10]; in vivo) was “Greater than 99%”. The “total level of metabolism” value ([10]; in vivo) was > 95%, the “unchanged drug excreted by the kidneys” value ([10]; in vivo) was “less than 1%” and the “time of second, longer-lasting blood level peak” value ([10]; oral) was “about 1 hour”. The “time of third plasma peak after dosing” value ([10]; oral) was “about 10 hours”, the “higher absorption with decreased stomach acid production” value ([10]; patients taking antacids) was “up to 60%” and the “oral absorption, accepted median” value ([10]; simple oral formulations) was “about 20%”. For the same compound, the “bound to plasma protein” value [11] was “about 85%”, the “tolerability in cancer patients” value ([12]; 0.25 to 0.5 mg/d i.v. for four days before surgery, 50 patients) was “well tolerated by all cancer patients with no appearance of either gastrointestinal or cardiac side effects” and the patients exhibiting side-effects ([12]; 47 clinical studies, 3740 patients) was “about 6.3%”. The “reported cases where therapy could be resumed after a brief hiatus” value ([12]; 47 clinical studies) was > 95%, the “patients taken off the treatment for negative side effects” value ([12]; 1067 patients observed for up to 3 years) was 0.7% and the well tolerated dose ([12]; cardiac patients) was “up to 1.5 mg/d”. The well tolerated dose ([12]; cardiac patients, listed as Proscillaridin A) was ~1.5 mg/day, the well tolerated dose ([12]; cardiologically-normal individuals) was “up to 3.5 mg/d” and the “dose producing typical intoxication symptoms” value ([12]; healthy individuals) was “above 4 mg p.o./d”. The side effects ([12]; healthy volunteers, 1.5 mg daily for 20 days) was “no negative side effects”, the “average level of side effects in clinical reports” value ([12]; nausea, seasickness, headache, vomiting, stomach cramps, diarrhea) was 5% and the “long-term or late-appearing chronic toxicity” value ([12]; review of a total of 3740 patients) was “none of these cases noted any long-term or late-appearing chronic toxicity”. The LD50 p.o. (rats; adult) was 0.25 mg/kg, the LD50 p.o. (rats; young animals (female)) was 76 mg/kg and the intravenous toxicity (cats) was 0.193 mg/kg.
